Reference: patent publication US20220273643A1, “METHOD OF TREATING KRAS-ASSOCIATED CANCERS” (THE REGENTS OF THE UNIVERSITY OF MICHIGAN, priority 2019, published 2022)

How the values were obtained:
HCT-116 [1] = test: immunoblotting HCT-116; format: cell-based; conditions: preliminary data
Method: (§1) FIG. 3 depicts the effect of DGD1202 on EGFR, KRAS and downstream signaling. (A). HCT-116 (colorectal cancer) cells were treated with DGD1202 for 5 h or 15 h, and whole cell lysates were probed with listed antibodies. (B). Evaluation of DGD1202 effects against the KRAS G12D driven pancreatic cell line (Panc1) tumor model; effect of treatment on the steady-state level of EGFR and mtKRAS was determined by immunoblotting; and GAPDH expression was assessed as a loading control.
(§2) The effect of DGD1202 on EGFR, ERK and AKT was also evaluated by immunoblotting. The preliminary data for DGD1202 in mutant KRAS driven HCT-116 (CRC) and Panc1 (Pancreas) cell lines are shown in FIG. 3A and FIG. 3B, respectively.
(§3) Cells were plated in 60-mm dishes at a density of 3×10^5 cells per dishes and incubated overnight or to 70% confluence. The cells were treated with the vehicle (DMSO) or DGD1202 and then were harvested at various time points. The pellets were washed twice with ice-cold PBS and re-suspended in lysis buffer for 30 min. After sonication, particulate material was removed by centrifugation at 13,000 rpm for 10 min at 4° C. […] After three additional washes in Tris-buffered saline, bound antibody was detected by enhanced chemiluminescence plus reagent. For quantification of relative protein levels, immunoblot films were scanned and analyzed using Image J 1.32j software. […]

solubility in water = format: physicochemical; conditions: pH 3.5
[2] = liver microsomal stability; format: in vitro ADME; conditions: compared to two other structurally close compounds
bioavailability = format: in vivo; conditions: systemic injection and oral administration
EGFR [3] = molecular target: T1, EGFR (Homo sapiens, UniProt P00533); test: EGF-induced EGFR dimerization; format: cell-based
T1 construct: endogenous in cells; host or cells: HCT-116, Panc1 (inferred; the sentence holding the result names no cells)
T1 sequence (P00533 25-1210): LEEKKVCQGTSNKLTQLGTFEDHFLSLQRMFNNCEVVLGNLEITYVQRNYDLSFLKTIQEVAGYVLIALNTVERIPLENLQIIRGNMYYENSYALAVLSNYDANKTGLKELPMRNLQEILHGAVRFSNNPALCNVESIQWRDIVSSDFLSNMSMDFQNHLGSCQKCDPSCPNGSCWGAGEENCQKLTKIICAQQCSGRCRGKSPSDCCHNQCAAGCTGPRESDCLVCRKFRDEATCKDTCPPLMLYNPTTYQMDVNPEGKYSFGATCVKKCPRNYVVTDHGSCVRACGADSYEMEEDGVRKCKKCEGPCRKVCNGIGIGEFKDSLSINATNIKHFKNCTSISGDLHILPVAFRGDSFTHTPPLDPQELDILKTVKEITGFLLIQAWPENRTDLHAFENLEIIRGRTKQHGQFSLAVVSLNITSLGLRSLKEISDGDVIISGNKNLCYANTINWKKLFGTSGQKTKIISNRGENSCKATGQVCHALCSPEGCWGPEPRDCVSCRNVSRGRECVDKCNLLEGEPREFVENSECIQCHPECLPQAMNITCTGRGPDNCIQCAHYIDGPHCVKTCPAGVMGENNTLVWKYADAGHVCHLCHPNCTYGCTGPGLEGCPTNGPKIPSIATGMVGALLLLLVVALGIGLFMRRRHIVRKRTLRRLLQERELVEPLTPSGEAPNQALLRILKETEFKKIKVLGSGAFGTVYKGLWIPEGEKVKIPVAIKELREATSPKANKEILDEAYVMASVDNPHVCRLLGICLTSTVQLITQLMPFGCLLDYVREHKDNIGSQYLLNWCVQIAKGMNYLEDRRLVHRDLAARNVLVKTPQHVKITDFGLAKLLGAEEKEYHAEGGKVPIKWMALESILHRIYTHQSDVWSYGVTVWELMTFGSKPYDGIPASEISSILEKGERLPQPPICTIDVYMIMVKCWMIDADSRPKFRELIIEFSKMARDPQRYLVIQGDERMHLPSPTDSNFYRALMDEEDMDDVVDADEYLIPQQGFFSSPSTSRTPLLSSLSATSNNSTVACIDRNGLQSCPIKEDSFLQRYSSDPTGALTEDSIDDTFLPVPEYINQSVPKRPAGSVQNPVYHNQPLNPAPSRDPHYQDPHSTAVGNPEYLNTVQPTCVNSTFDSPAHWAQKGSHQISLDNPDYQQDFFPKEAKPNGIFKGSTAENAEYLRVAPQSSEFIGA

[4] = test system: cetuximab-resistant cell-lines; test: IC50 against cetuximab-resistant cell-lines; format: cell-based; conditions: cetuximab-resistant cell-lines expressing mutant KRAS
[5] = test system: immortalized cells of non-cancer origin; test: IC50 in immortalized cells of non-cancer origin; format: cell-based
purified EGFR = purified EGFR (Homo sapiens, UniProt P00533); test: direct binding to purified EGFR
Sequence of purified EGFR (P00533 25-1210): as above

lung lesion = test: genetically engineered KRAS-LSL-G12D mouse model of lung cancer; format: in vivo, mice; conditions: 30 mg/kg oral gavage Monday-Friday for 4 weeks; paired t-test p=0.0577
Method: The efficacy of DGD1202 treatment was assessed for KRAS-mutant lung tumor initiation and progression. A genetically engineered KRAS-LSL-G12D mouse model of lung cancer was used. This mouse carries a Lox-Stop-Lox (LSL) sequence followed by the KRAS G12D point mutation allele. Tumorigenesis was initiated by intra-nasal delivery of Adenovirus-Cre particles (1.5×10e^7 pfu) that transduced lung epithelial cells to express Cre recombinase that deletes the LSL cassette and allows the expression of the mutant KRAS oncogenic protein.
Eight weeks after viral delivery, the mice were treated either with vehicle or with DGD1202 on a Monday-Friday schedule for 4 weeks at a dose of 30 mg/kg oral gavage. When mice were 20-week old, the lungs were harvested and the H&E sections underwent morphological assessment. The histopathological spectrum of the lung lesions was noted and recorded in a double-blinded fashion for hyperplasia—alveolar or bronchial, the pattern of hyperplasia, adenoma, hyperplasia with focal atypia, bronchial dysplasia, adenomas, and atypical adenomatous hyperplasia. The percentage of lung lesion and total area of lung lesion from each lobe in every sample from both treatment group were scored and are shown in FIG. 6.

HCT-116 [6] = test: clonogenic survival assay HCT-116; format: cell-based; conditions: KRAS G13D driven cetuximab-resistant colorectal cell-line; FIG. 2
Method: A study was conducted to evaluate the activity of DGD1202 in a KRAS G13D driven cetuximab-resistant colorectal cell-line (HCT-116) using clonogenic survival assays (FIG. 2) and in a pancreatic cancer cell line (Panc1) that contains KRAS G12D mutation (FIG. 3B).
More specifically, cells were plated at clonal density in 60 or 100 mm culture dishes in triplicate one day before treatment with a range of concentrations (e.g., 0-10 micro M). Eight to twelve days later, cells were fixed with acetic acid/methanol (1:7, v/v), stained with crystal violet (0.5%, w/v), and counted using a stereomicroscope. Drug cytotoxicity (surviving drug-treated cells) was measured and normalized to the survival of the untreated control cells.

NCI-H1975-AZR = NCI-H1975-AZR (osimertinib resistant) xenograft; format: in vivo; conditions: SCID mice, 75 mg/kg oral gavage daily for two weeks
Method: FIG. 5 depicts the effect of DGD1202 on osimertinib resistant, NCI-H1975 lung cancer xenografts. (A). SCID mice bearing NCI-H1975 osimertinib resistant xenografts were treated with DGD1202 (75 mg/kg, daily, PO). The arrow marks the initiation of treatment with DGD1202. Change in tumor volume is plotted. (B). The effect of DGD1202 treatment on EGFR was assessed in tumors harvested 3 days post DGD1202 treatment.
A study was conducted to evaluate the efficacy of DGD1202 in mutant EGFR driven lung cancer model (FIG. 5).
Briefly, SCID mice bearing locally advanced NCI-H1975-AZR (osimertinib resistant) xenograft were treated daily with oral gavage of DGD1202 (75 mg/kg) for two weeks. Tumor volumes were measured using calipers at least three times a week. The effect of DGD1202 treatment on EGFR expression was determined by IHC staining 3-days after initiation of treatment.

Panc1 = test: immunoblotting Panc1; format: cell-based; conditions: Panc1, KRAS G12D specific antibody; preliminary data
Method: as §1, §2, §3

UMSCC74B = format: in vivo
Method: FIG. 1 depicts the effect of DGD1202 in mutant KRAS (and EGFR co-driven) head and neck (UMSCC74B) tumor model.
Tumor-bearing mice were treated with DGD1202 via oral gavage in 30 mg/kg dose biweekly for one week. This dose was selected based on its single-dose PK profile.

[7] = test system: EGFR-driven osimertinib resistant cell lines; test: activity in osimertinib resistant cell lines; format: cell-based
EGFR [8] = molecular target: T1, EGFR; test: EGFR degradation; format: cell-based; conditions: instead of inhibiting the activity
[9] = test system: PanIn (pancreatic intraepithelial neoplasia); test: KRAS G12D driven pancreatic tumor model (KC mice); format: in vivo; conditions: 30 mg/kg oral gavage daily for 5 weeks, scored at week 11
Method: A study was conducted to evaluate the efficacy of DGD1202 in KRAS G12D driven pancreatic tumor model.
More specifically, 6-week old KC mice were treated with DGD1202 via oral gavage (30 mg/kg body weight, daily) for 5 weeks.

## CN1CCC2(CC1)N=C(SCC(=O)Nc1cnc3ccccc3c1)C(c1ccc(Br)cc1)=N2 [DGD1202, 2-((3-(4-bromophenyl)-8-methyl-1,4,8-triazaspiro[4.5]deca-1,3-dien-2-yl)thio)-N-(quinolin-3-yl)acetamide]
HCT-116 [1]; HCT116, PAN-RAS antibody, 5 h or 15 h
  EGFR and KRAS levels by immunoblotting: affected both EGFR and mtKRAS
HCT-116 [1]; HCT-116
  downstream signaling pAKT and pERK by immunoblotting: affected downstream signaling in pAKT and pERK
Solubility in water
  solubility in water: soluble in water at pH 3.5
[2]
  liver microsomal stability: much better liver microsomal stability
bioavailability
  bioavailability: bioavailable
EGFR [3]
  EGF-induced EGFR dimerization: blocks EGF-induced EGFR dimerization
[4]
  IC50: 500 to 2200 nM
[5]
  IC50: > 20000 nM
Purified EGFR
  binding to purified EGFR: directly binds to purified EGFR
Lung lesion
  percentage of lung lesion and total area of lung lesion vs vehicle: tend towards significance
HCT-116 [6]
  clonogenic survival: effective
NCI-H1975-AZR
  efficacy on tumor volume: exhibited efficacy
Panc1
  EGFR and mtKRAS levels by immunoblotting: affected both EGFR and mtKRAS (Panc1) levels
UMSCC74B; 30 mg/kg oral gavage, tumor-bearing mice
  safety of dose and regimen: safe
UMSCC74B; UMSCC74B tumor-bearing mice, DGD1202 30 mg/kg oral gavage, cetuximab 100 mg/kg (FIG. 1), P<0.001 for DGD1202
  tumor growth: significant tumor growth suppression
[7]
  activity in EGFR-driven osimertinib resistant cell lines: selectively active
EGFR [8]
  EGFR degradation: degrades EGFR
[9]
  effect on PanIn (pancreatic intraepithelial neoplasia): significantly reduced propensity for developing PanIn
